According to ChEMBL document CHEMBL1143525, “A fluorescent inositol phosphate glycan stimulates lipogenesis in rat adipocytes by extracellular activation alone” (Bioorg Med Chem Lett, 2005):

Assays:
[1] = species on record: Rattus norvegicus; assay: Value of Kd measured against rat Adipocytes; type: functional, organism-based
[2] = species on record: Rattus norvegicus; assay: Maximal activity to stimulate lipogenisis in rat adipocytes compared to the maximal effect of insulin; type: functional

Kd [1] [µM] | SMILES | Activity [2] [%]
15.9 | NC1[C@H](O[C@H]2C(O)C(O)[C@@H](O)C3OP(=O)(O)O[C@H]32)OC(CO)[C@@H](O)[C@@H]1O (some centres undefined) | 24
12 | Nc1c(S(=O)(=O)[O-])cc2c3c(cc(S(=O)(=O)[O-])cc13)C(=O)N(CCNC(=O)CSC[C@@H]1O[C@@H](O[C@H]3[C@H](O)[C@H](O)[C@@H](O)[C@@H]4OP(=O)(O)O[C@@H]34)[C@@H](N)[C@@H](O)[C@@H]1O)C2=O.[K+].[K+] | 47
